Our source for the apoptosis or necrosis, apoptosis and tumor growth values is patent US10806694B2, “Nanoparticles for photodynamic therapy, X-ray induced photodynamic therapy, radiotherapy, radiodynamic therapy, chemotherapy, immunotherapy, and any combination thereof” (The University of Chicago, priority 2014, dated 2020).

The subject of assay [1] is CT26 cells. Description: Apoptosis after PDT, Annexin V/dead cell kit, flow cytometry. Format: cell-based, murine. The settings on record: 5 μM. As for the experimental part: CT26 cells were incubated with 5 μM DBC-UiO or H2DBC followed by light irradiation at 0.1 W/cm^2 for 15 min (90 J/cm^2). The apoptosis induced by PDT treatment was determined with the Alexa Fluor 488 Annexin V/dead cell apoptosis kit by flow cytometry. […] Calreticulin (CRT) is a distinct biomarker exposed on the surface of cells undergoing ICD. The CRT expression was determined by flow cytometry and immunofluorescence to assess the ICD induced by DBC-UiO induced PDT. CT26 cells were treated with 5 μM DBC-UiO or H2DBC followed by light irradiation at 0.1 W/cm^2 for 15 min (90 J/cm^2). For flow cytometry analysis, cells were collected and stained with Alexa Fluor 488-CRT antibody and propidium iodide (PI). The fluorescence intensity of stained cells was gated on PI-negative cells. For immunostaining analysis, the cells were stained with AlexaFluor 488-CRT conjugated antibody and DAPI nuclei stain, and observed using confocal laser scanning microscopy (CLSM).

In assay [2] the test system is SQ20B subcutaneous xenograft murine models. Description: In vivo PDT efficacy. The arrangement: species or system mice. The conditions noted are these: 3.5 mg/kg intratumoral, 180 J/cm^2, single treatment. Here is the method: The PDT efficacy of DBP-UiO was investigated using SQ20B subcutaneous xenograft murine models. Tumor bearing mice were established by subcutaneous inoculation of SQ20B cell suspension (5×10^6 cells per mouse) into the right flank region of 6-week athymic female nude mice. Three groups were included for comparison: PBS as control, H2DBP, and DBP-UiO. When tumors reached 100 mm^3, PBS, H2DBP, and DBP-UiO were intratumorally injected to animals at a DBP dose of 3.5 mg/kg. At 12 h post-injection, mice were anesthetized with 2% (v/v) isoflurane and tumors were irradiated with a 640 nm LED for 30 min. The light intensity was measured as 100 mW/cm^2, and the total light dose was 180 J/cm^2. Both injection and PDT were performed once.
To evaluate the therapeutic efficacy, tumor growth and body weight evolution were monitored. The tumor size was measured with a digital caliper every day. Tumor volumes were calculated as follows: (width^2×length)/2. Finally, all mice were sacrificed on Day 8, and the excised tumors were photographed and weighed. Tumors were fixed with formalin. Paraffin-embedded 5 μm tumor sections were stained with hematoxylin and erosin (H&E) and observed with light microscopy (Pannoramic Scan Whole Slide Scanner, Perkin Elmer, Waltham, Mass., United States of America).
In vivo experiments on SQ20B subcutaneous xenograft murine models were carried out. […]

With 5, 15-di(p-benzoato)chlorin [H2DBC], in assay [1] (in the dark), the apoptosis or necrosis result was “No apoptosis or necrosis was observed”. In addition, in assay [1] (light irradiation 90 J/cm^2), the apoptosis result was “significant amounts of cells underwent apoptosis”.

As for `O=C(O)c1ccc(-c2c3nc(cc4ccc([nH]4)c(-c4ccc(C(=O)O)cc4)c4nc(cc5ccc2[nH]5)C=C4)C=C3)cc1` [H2DBP, 5,15-di(p-benzoato)porphyrin], the tumor growth result in assay [2] is “slightly suppressed after PDT, however accelerated after 5 days and exhibited no difference to the control group at the endpoint”.
